These results are taken from publication PMC2795317 (Journal of medicinal chemistry, 2009).

SMILES strings stand for the structures.

For this assay, the system named is MDA-MB-231 breast cancer cells. Briefly: Western blot analysis of caspase-8/-3 processing and PARP cleavage. The class given is cell-based. Particulars: 24 hours; for Concentration inducing processing of caspase-3 and -8 and cleavage of PARP: concentrations as low as.

For the compound `CN[C@@H](C)C(=O)N[C@H]1CCCC[C@H]2CC[C@@H](C(=O)NC(c3ccccc3)c3ccccc3)N2C1=O` [Compound 7], the “Processing of caspase-8 and -3 and cleavage of PARP” value was “effectively induce processing of caspase-8 and -3 and cleavage of PARP in a dose-dependent manner”.
Regarding `CN[C@@H](C)C(=O)N[C@H]1CCCC[C@H]2CC[C@@H](C(=O)N[C@@H]3CCCc4ccccc43)N2C1=O` [Compound 8], the “Processing of caspase-8 and -3 and cleavage of PARP” value was “effectively induce processing of caspase-8 and -3 and cleavage of PARP in a dose-dependent manner”; the “Concentration inducing processing of caspase-3 and -8 and cleavage of PARP” value is given as at most 10 nM.
Regarding `CN[C@@H](C)C(=O)N[C@H]1CCCC[C@H]2[C@@H](Cc3ccccc3)C[C@@H](C(=O)N[C@@H]3CCCc4ccccc43)N2C1=O` [Compound 10], the “Processing of caspase-8 and -3 and cleavage of PARP” value was “effectively induce processing of caspase-8 and -3 and cleavage of PARP in a dose-dependent manner”; the “Concentration inducing processing of caspase-3 and -8 and cleavage of PARP” value was at most 10 nM.
